According to patent publication US8337835B2, “Use of an endogenous ligand for peroxisome proliferator activated receptor alpha to treat liver disorders” (priority 2009, dated 2012):

Test system: PPARα-dependent genes ACO and CPT-1
Assay: Portal vein infusion, hepatic ACO and CPT-1 mRNA by RT-PCR
Type: in vivo, mouse
Settings: 10 mg/kg intraportal three times a day
Experimental: Total RNA was extracted from Hepa 1-6 cells and liver using Trizol (Invitrogen) and treated with DNase I (RNase-free, Roche Molecular Biochemicals). Reverse transcription to cDNA and real-time quantitative PCR were performed using previously published procedures and primer-probe sequences for ACO and CPT-1 (Chakravarthy et al., 2005). RT-PCR for ChPT1 and CEPT1 was performed using the following primer-probe sets: ChPT1 (Forward, 5′-[…]-3′ (SEQ ID NO: 3); Reverse, 5′-[…]-3′ (SEQ ID NO: 4); Probe, 5′-[…]-3′ (SEQ ID NO: 5)); CEPT1 (Forward, 5′-TGCTGGACGGTCCCTTCTC-3′ (SEQ ID NO: 6); Reverse, 5′-[…]-3′ (SEQ ID NO: 7); Probe, 5′-[…]-3′ (SEQ ID NO: 8)). RNA not subjected to reverse transcription was included in each assay as a negative control. […] Relative mRNA levels were calculated using both the comparative CT and standard curve methods normalized to ribosomal protein L32, an invariant internal control. […]
The objectives were achieved by portal vein infusion of 1-palmitoyl-2-oleoyl-sn-glycerol-3-phosphocholine (16:0/18:1-GPC) to rescue PPARα^−/− mice from fatty liver disease or hepatic steatosis, liver tissue extraction, RT-PCR gene expression analysis of the extracted liver tissue and lipid and triglyceride assessment of the extracted liver tissue. […] Fat staining of liver is shown in FIG. 7C and liver triglyceride quantified in FIG. 7D. […]

In the case of `CCCCCCCC/C=C\CCCCCCCC(=O)O[C@H](COC(=O)CCCCCCCCCCCCCCC)COP(=O)([O-])OCC[N+](C)(C)C` [16:0/18:1-GPC, 1-palmitoyl-2-oleoyl-sn-glycerol-3-phosphocholine], the “hepatic ACO and CPT-1 expression” value (PPARα-deficient mice) is reported as “not in PPARα-deficient mice” and the “hepatic ACO and CPT-1 expression” value (control (C57/BL6) mice) is reported as “increased”.
